# Measured values published in PMC11277489, “Novel Piperazine Derivatives of Vindoline as Anticancer Agents” (International Journal of Molecular Sciences, 2024).
# Key:
# [1] = test system: LOX IMVI; assay: NCI60 one-dose screen (10 μM), Melanoma; type: cell-based, human
# [2] = test system: UACC-257; assay: NCI60 one-dose screen (10 μM), Melanoma; type: cell-based; conditions: Homo sapiens; 10 μM; UACC-257, Melanoma; read-out: Growth percent rate
# [3] = test system: SNB-19; assay: NCI60 one-dose screen (10 μM), CNS Cancer; type: cell-based; conditions: Homo sapiens; 10 μM; SNB-19, CNS Cancer; read-out: Growth percent rate
# [4] = test system: 60 human tumor cell lines (NCI60); assay: NCI60 one-dose screen (10 μM), whole panel; type: cell-based
# [5] = test system: HCC-2998; assay: NCI60 one-dose screen (10 μM), Colon Cancer; type: cell-based; conditions: Homo sapiens; 10 μM; HCC-2998, Colon Cancer; read-out: Growth percent rate
# [6] = test system: OVCAR-3; assay: NCI60 one-dose screen (10 μM), Ovarian Cancer; type: cell-based; conditions: Homo sapiens; 10 μM; OVCAR-3, Ovarian Cancer; read-out: Growth percent rate
# [7] = test system: K-562; assay: NCI60 one-dose screen (10 μM), Leukemia; type: cell-based; conditions: Homo sapiens, K562; 10 μM; K-562, Leukemia; read-out: Growth percent rate
# [8] = test system: HCT-15; assay: NCI60 one-dose screen (10 μM), Colon Cancer; type: cell-based; conditions: Homo sapiens; 10 μM; HCT-15, Colon Cancer; read-out: Growth percent rate
# [9] = test system: SN12C; assay: NCI60 one-dose screen (10 μM), Renal Cancer; type: cell-based; conditions: Homo sapiens, 10 μM, Renal Cancer, read-out: Growth percent rate
# [10] = test system: CCRF-CEM; assay: NCI60 one-dose screen (10 μM), Leukemia; type: cell-based; conditions: Homo sapiens, 10 μM, Leukemia, read-out: Growth percent rate
# [11] = test system: HT29; assay: NCI60 one-dose screen (10 μM), Colon Cancer; type: cell-based; conditions: Homo sapiens, HT-29; 10 μM; HT29, Colon Cancer; read-out: Growth percent rate
# [12] = test system: IGROV1; assay: NCI60 one-dose screen (10 μM), Ovarian Cancer; type: cell-based; conditions: Homo sapiens, IGROV-1; 10 μM; IGROV1, Ovarian Cancer; read-out: Growth percent rate
# [13] = test system: OVCAR-4; assay: NCI60 one-dose screen (10 μM), Ovarian Cancer; type: cell-based; conditions: Homo sapiens; 10 μM; OVCAR-4, Ovarian Cancer; read-out: Growth percent rate
# [14] = test system: COLO 205; assay: NCI60 one-dose screen (10 μM), Colon Cancer; type: cell-based, human; conditions: Homo sapiens; 10 μM; COLO 205, Colon Cancer; read-out: Growth percent rate
# [15] = test system: MOLT-4; assay: NCI60 one-dose screen (10 μM), Leukemia; type: cell-based, human; conditions: Homo sapiens; 10 μM; MOLT-4, Leukemia; read-out: Growth percent rate
# [16] = test system: SF-539; assay: NCI60 one-dose screen (10 μM), CNS Cancer; type: cell-based, human
# [17] = test system: NCI-H460; assay: NCI60 one-dose screen (10 μM), Non-small Cell Lung Cancer; type: cell-based; conditions: Homo sapiens; 10 μM; NCI-H460, Non-small Cell Lung Cancer; read-out: Growth percent rate
# [18] = test system: SW-620; assay: NCI60 one-dose screen (10 μM), Colon Cancer; type: cell-based; conditions: Homo sapiens; 10 μM; SW-620, Colon Cancer; read-out: Growth percent rate
# [19] = test system: NCI-H322M; assay: NCI60 one-dose screen (10 μM), Non-small Cell Lung Cancer; type: cell-based; conditions: Homo sapiens, 10 μM, Non-small Cell Lung Cancer, read-out: Growth percent rate
# [20] = test system: A549/ATCC; assay: as above; type: cell-based; conditions: Homo sapiens; 10 μM; A549/ATCC, Non-small Cell Lung Cancer; read-out: Growth percent rate
# [21] = test system: SF-295; assay: NCI60 one-dose screen (10 μM), CNS Cancer; type: cell-based; conditions: Homo sapiens; 10 μM; SF-295, CNS Cancer; read-out: Growth percent rate
# [22] = test system: CAKI-1; assay: NCI60 one-dose screen (10 μM), Renal Cancer; type: cell-based; conditions: Homo sapiens; 10 μM; CAKI-1, Renal Cancer; read-out: Growth percent rate
# [23] = test system: HL-60(TB); assay: NCI60 one-dose screen (10 μM), Leukemia; type: cell-based; conditions: Homo sapiens; 10 μM; HL-60(TB), Leukemia; read-out: Growth percent rate
# [24] = test system: HCT-116; assay: NCI60 one-dose screen (10 μM), Colon Cancer; type: cell-based; conditions: Homo sapiens; 10 μM; HCT-116, Colon Cancer; read-out: Growth percent rate
# [25] = test system: SK-MEL-2; assay: NCI60 one-dose screen (10 μM), Melanoma; type: cell-based; conditions: Homo sapiens; 10 μM; SK-MEL-2, Melanoma; read-out: Growth percent rate
# [26] = test system: SF-268; assay: NCI60 one-dose screen (10 μM), CNS Cancer; type: cell-based; conditions: Homo sapiens; 10 μM; SF-268, CNS Cancer; read-out: Growth percent rate
# [27] = test system: MDA-MB-435; assay: NCI60 one-dose screen (10 μM), Melanoma; type: cell-based; conditions: Homo sapiens; 10 μM; MDA-MB-435, Melanoma; read-out: Growth percent rate
# [28] = test system: NCI-H23; assay: NCI60 one-dose screen (10 μM), Non-small Cell Lung Cancer; type: cell-based; conditions: Homo sapiens; 10 μM; NCI-H23, Non-small Cell Lung Cancer; read-out: Growth percent rate
# [29] = test system: DU-145; assay: NCI60 one-dose screen (10 μM), Prostate Cancer; type: cell-based; conditions: Homo sapiens; 10 μM; DU-145, Prostate Cancer; read-out: Growth percent rate
# [30] = test system: SNB-75; assay: NCI60 one-dose screen (10 μM), CNS Cancer; type: cell-based, human
# [31] = test system: SK-MEL-28; assay: NCI60 one-dose screen (10 μM), Melanoma; type: cell-based; conditions: Homo sapiens; 10 μM; SK-MEL-28, Melanoma; read-out: Growth percent rate
# [32] = test system: 786–0; assay: NCI60 one-dose screen (10 μM), Renal Cancer; type: cell-based; conditions: Homo sapiens; 10 μM; 786-0, Renal Cancer; read-out: Growth percent rate
# [33] = test system: NCI-H522; assay: NCI60 one-dose screen (10 μM), Non-small Cell Lung Cancer; type: cell-based; conditions: Homo sapiens; 10 μM; NCI-H522, Non-small Cell Lung Cancer; read-out: Growth percent rate
# [34] = test system: EKVX; assay: as above; type: cell-based; conditions: Homo sapiens, 10 μM, Non-small Cell Lung Cancer, read-out: Growth percent rate
# [35] = test system: KM12; assay: NCI60 one-dose screen (10 μM), Colon Cancer; type: cell-based, human
# [36] = test system: M14; assay: NCI60 one-dose screen (10 μM), Melanoma; type: cell-based; conditions: Homo sapiens; 10 μM; M14, Melanoma; read-out: Growth percent rate
# [37] = test system: RXF 393; assay: NCI60 one-dose screen (10 μM), Renal Cancer; type: cell-based, human; conditions: Homo sapiens; 10 μM; RXF 393, Renal Cancer; read-out: Growth percent rate
# [38] = test system: MCF7; assay: NCI60 one-dose screen (10 μM), Breast Cancer; type: cell-based; conditions: Homo sapiens; 10 μM; MCF7, Breast Cancer; read-out: Growth percent rate
# [39] = test system: SK-MEL-5; assay: NCI60 one-dose screen (10 μM), Melanoma; type: cell-based, human
# [40] = test system: ACHN; assay: NCI60 one-dose screen (10 μM), Renal Cancer; type: cell-based; conditions: Homo sapiens, 10 μM, Renal Cancer, read-out: Growth percent rate
# [41] = test system: MALME-3M; assay: NCI60 one-dose screen (10 μM), Melanoma; type: cell-based; conditions: Homo sapiens; 10 μM; MALME-3M, Melanoma; read-out: Growth percent rate
# [42] = test system: OVCAR-8; assay: NCI60 one-dose screen (10 μM), Ovarian Cancer; type: cell-based; conditions: Homo sapiens; 10 μM; OVCAR-8, Ovarian Cancer; read-out: Growth percent rate
smiles,measurement,setting,value
CCC12C=CCN3CCC4(c5cc(NC(=O)CN6CCN(c7ccc(C(F)(F)F)cc7)CC6)c(OC)cc5N(C)C4C(O)(C(=O)OC)C1OC(C)=O)C32 (stereo not drawn) [Compound 17],growth percent rate,"[1]; 10 μM one-dose, LOX-IMVI melanoma, negative = lethality",−95.37%
same,activity at 10 µM,"[1]; Homo sapiens, 10 μM, LOX IMVI, Melanoma, read-out: Growth percent rate",-95.4%
same,activity at 10 µM,[2],-65.3%
same,activity at 10 µM,[3],18.4%
same,antiproliferative effect (in words),"[4]; 10 μM one-dose, NCI60",highly effective in several types of cancer
same,activity at 10 µM,"[4]; 10 μM, mean over 60 human cancer cell lines, read-out: Growth percent rate, Mean",-24.7%
same,activity at 10 µM,[5],-69.9%
same,activity at 10 µM,[6],-48%
same,activity at 10 µM,[7],11.4%
same,activity at 10 µM,[8],-56.5%
same,activity at 10 µM,[9],-17%
same,activity at 10 µM,[10],-7.07%
same,activity at 10 µM,[11],-68.8%
same,activity at 10 µM,[12],12.7%
same,activity at 10 µM,[13],20.4%
same,activity at 10 µM,[14],-74.5%
same,activity at 10 µM,[15],8.66%
same,growth percent rate,"[16]; 10 μM one-dose, SF-539 CNS cancer, negative = lethality",< −80%
same,activity at 10 µM,"[16]; Homo sapiens, 10 μM, SF-539, CNS Cancer, read-out: Growth percent rate",-83.4%
same,activity at 10 µM,[17],9.27%
same,activity at 10 µM,[18],1.45%
same,activity at 10 µM,[19],39.1%
same,activity at 10 µM,[20],20.3%
same,activity at 10 µM,[21],-70.2%
same,activity at 10 µM,[22],10.8%
same,activity at 10 µM,[23],1.98%
same,activity at 10 µM,[24],0.31%
same,activity at 10 µM,[25],-66.2%
same,activity at 10 µM,[26],-6.14%
same,activity at 10 µM,[27],-79.8%
same,activity at 10 µM,[28],15.2%
same,activity at 10 µM,[29],24.1%
same,growth percent rate,"[30]; 10 μM one-dose, SNB-75 CNS cancer, negative = lethality",< −80%
same,activity at 10 µM,"[30]; Homo sapiens, 10 μM, SNB-75, CNS Cancer, read-out: Growth percent rate",-87.6%
same,activity at 10 µM,[31],-67.6%
same,activity at 10 µM,[32],24.8%
same,activity at 10 µM,[33],-24.4%
same,activity at 10 µM,[34],21.3%
same,growth percent rate,"[35]; 10 μM one-dose, KM12 colon cancer, negative = lethality",−84.40%
same,activity at 10 µM,"[35]; Homo sapiens, 10 μM, KM12, Colon Cancer, read-out: Growth percent rate",-84.4%
same,activity at 10 µM,[36],-31.1%
same,activity at 10 µM,[37],-36.5%
same,activity at 10 µM,[38],0.95%
same,growth percent rate,"[39]; 10 μM one-dose, SK-MEL-5 melanoma, negative = lethality",−98.17%
same,activity at 10 µM,"[39]; Homo sapiens, 10 μM, SK-MEL-5, Melanoma, read-out: Growth percent rate",-98.2%
same,activity at 10 µM,[40],3.15%
same,activity at 10 µM,[41],-89.5%
same,activity at 10 µM,[42],26.3%
